# Data published in US20020026052A1, “3-cyanoquinolines, 3-cyano-1,6-naphthyridines, and 3-cyano-1,7-naphthyridines as protein kinase inhibitors” (American Home Products Corporation, priority 2000, published 2002).
# “And” between values parts separate entries of the source, which are not always exact repeats. Equal entries are not always repeated.
# Experiments:
# [1] = test system: human adenocarcinoma cell line CaCo-2; experiment: Cell Based Screen for Inhibitors of Raf Kinase, CaCo-2; conditions: four days incubation, SRB
# Description: (§1) Cell Based Screen for Inhibitors of Raf Kinase.
# (§2) Cell Lines: Human adenocarcinoma cell line LoVo which is known to be growth inhibited by low nM concentrations of a reference standard inhibitor of Ras and human adenocarcinoma cell line CaCo-2, which is known to be growth resistant to the same reference compound. Cell Media: RPMI 1640 with 10% Fetal Bovine Serum supplemented with L-glutamine and Pennicilin/Streptomycin. Compounds: Supplied usually as a 10 mM stock in 100% DMSO. Normal Saline: 150 mM NaCl Trichloroacetic Acid (TCA): 50% (w/v) in water Sulforhodamine B (SRB): 0.4% (w/v) in 1% Acetic Acid Tris Base: 10 mM in water
# (§3) Cells are plated at 2000 cells per well for cell line LoVo and 1500 cells for cell line CaCo-2 in 96 well plates. Cells are plated in media (200 μl) and allowed to adhere overnight at 37 ° C. At 24 hours post plating, compounds are added directly at a volume of 0.5 μl. For the qualitative screen (compounds screened at 25 μM) compound is added directly to cells. For the quantitative screen, compound is first diluted in DMSO to generate concentrations of compound or reference standard of: 1, 5, 10 and 25 μM. It is advisable to make the dilutions in an identical 96 well plate so that compounds may be added using a multichannel micropipettor set at 0.5 μl. The cells are then incubated for four days after which the media is removed using a 12 well manifold by first tipping the plate forward at a 45 degree angle and then inserting the manifold in an upright orientation to prevent the ti
# (§4) of the manifold from disturbing cells at the bottom of the plate. 200 μl of normal saline is then added to each well using an 8 well multichannel pipettor, followed by the careful addition of 50 μl of 50% TCA. The plates are then incubated for 2 hours at 4 ° C, after which the supernatant is removed using the same technique as above and the plated washed twice with 200 ul water. The plates are then air dried and 50 μl of SRB stock solution is carefully added so that the entire bottom of each well is covered. This again may be used using an 8 well multichannel pipettor. The SRB is incubated with fixed cells for 15 minutes at room temperature after which the SRB is removed with the manifold as described above and the plates washed twice with 350 μl of 1% acetic acid per well each time.The plates are then air dried after which the bound SRB is released from protein by the addition of 200 µl of Tris base. Resolubilizing the SRB is aided by placing the plates on a rotator for 15-30 minutes. The absorbance of each well is determined at 550 or 562 nm using a microtiter plate reader.
# (§5) Each compound or dilution thereof is performed in triplicate. Outliers are identified by visual inspection of the data. Each plate should have a “0” control (vehicle only). […] Quantitative Assay: A standard curve is constructed by plotting the concentration of compound against the average absorbance calculated at that concentration. A curve is plotted and the concentration at which the curve passes through the 50% the absorbance mark seen in the “0” control well is the IC50 calculated for that compound. Multiple entries for a given compound indicate that it was tested multiple times.
# [2] = test system: Human adenocarcinoma cell line LoVo; experiment: Cell Based Screen for Inhibitors of Raf Kinase, LoVo; conditions: four days incubation, SRB
# Description: as §1, §2, §3, §4, §5
# Raf1 (c-Raf) = molecular target: T1, Raf1 (c-Raf) (Homo sapiens, UniProt P04049); experiment: Raf1 Kinase Cascade Assay; assay type: biochemical
# T1 construct: Sf9 insect cell lysate containing full length 6 his-tagged recombinant human c—Raf; 6His; host or cells: Sf9 insect cells (c-Raf, used as lysate); E. coli (GST-MEK1, GST-MAPK)
# Description: Raf1 Kinase Cascade Assay Procedure
# (Specific Activity: ˜200 U/ml). Human Non-active Mek-1—GST and human GST-MAP kinase (recombinant proteins produced in E. coli).
# Stock Solutions Raf Assay:
# Assay Dilution Buffer (ADB): 2 OmM MOPS, pH 7.2, 25 mM B-glycerol phosphate, mM EGTA, 1 mM sodium orthovanadate, 1 mM dithiothreitol. Magnesium/ATP Cocktail: 500 AM cold ATP and 75 mM magnesium chloride in ADB.
# Active Kinase: Human Active c—Raf: Use at 0.4 U per assay point. Non-active GST-MEK1: Use at 0.1, ug per assay point. Non-active GST-p42 MAP Kinase: Use at 1.0 tg per assay point.
# TBST—Tris (50 mM, pH 7.5)-1H-, NaCl (150 mM), Tween-20 (0.05%) Superblock (Pierce) Anti—GST Ab (Pharmacia) Anti-Phospho MAPK (Sigma) Anti-Mouse Ab/Europium conjugate (Wallac)
# Assay Procedure: First Stage: c—Raf Dependent Activation of GST-MEK and GST-MAPK Add […] of ADB per assay (i.e. per well of a 96 well plate) Add 10 ml of 0.5 mM cold ATP and 75 mM magnesium chloride in ADB. Add 2 ml of c—Raf (0.4 U/assay), in conjunction with 1.6 ml non-active MEKI (0.4 mg/assay). Add 4 ml of non-active GST-p42 MAP Kinase (1.0 mg/assay). Incubate for 60 minutes at 30° C. in a shaking incubator. Transfer this mixture to an anti—GST Ab coated 96 well plate (Nunc Immunosorb plates coated o/n with a—GST, then blocked with Pierce Superblock). Incubate for 60 minutes at 30° C. in a shaking incubator Wash 3×with TBST, add Anti-Phospho MAPK (Sigma) (1:3000)-1H-Incubate for 60 minutes at 30° C. in a shaking incubator Wash 3×with TBST, add Anti-Mouse Ab/Europium conjugate (Wallac) (1:500)-1H-Incubate for 60 minutes at 30° C. in a shaking incubator Wash 3×with TBST, Read plates in Wallac Victor model Plate Reader. Collect data analyze in Excel for single point and IC50 determinations.
# IC50 determinations - done on compounds from single point assays with >80% inhibition. Typically Raf-1 assay is run at compound concentrations from 10 μM to 30 nM in half log dilutions. (% inhibition is determined for each compound concentration).
IC50 [1],IC50 [2],IC50 (Raf1 (c-Raf)),melting point,"IC50 ([2]; Homo sapiens, LoVo, 96 h)","IC50 ([1]; Homo sapiens, Caco-2, 96 h)",Compound
–,–,2.5 nM and 1.8 nM,158 to 160 °C,11 nM,> 1000 nM,"Cn1ccnc1Sc1ccc(Nc2c(C#N)cnc3cc(-c4ccc(CN5CCCCC5)cc4)ccc23)cc1Cl [Example 136, 4-{3-Chloro-4-[(1-methyl-IH-imidazol-2-yl)sulfanyl]anilino}-7-[4-(1-piperidinylmethyl)phenyl]-3-quinolinecarbonitrile]"
810 nM,6.2 nM,5.6 nM,–,–,–,"Cn1ccnc1Sc1ccc(Nc2c(C#N)cnc3cc(-c4ccc(CN5CCOCC5)cc4)ccc23)cc1Cl [Example 138, 4-({3-Chloro-4-[(1-methyl-lH-imidazol-2-yl)sulfanyl]phenyl}amino)-7-{4-[(4-morpholinyl)methyl]phenyl}-3-quinolinecarbonitrile]"
–,–,20 nM,214 to 215 °C,–,–,"Cn1ccnc1Sc1ccc(Nc2c(C#N)cnc3cc(-c4ccc(CN5CCCCC5)o4)ccc23)cc1Cl [Example 155, 4-{3-Chloro-4-[(1-methyl-1H-imidazol-2-yl)sulfanyl]anilino}-7-[5-(1-piperidinylmethyl)-2-furyl]-3-quinolinecarbonitrile]"
–,9 nM,–,225 to 227 °C,–,–,"Cn1ccnc1Sc1ccc(Nc2c(C#N)cnc3cc(-c4ccc(CN5CCOCC5)cn4)ccc23)cc1Cl [Example 187, 4-{3-Chloro-4-[(1-methyl-1H-inidazol-2-yl)sulfanyl]anilino}-7-[5-(4-morpholinylmethyl)-2-pyridinyl]-3-quinolinecarbonitrile]"
–,–,1 nM,> 250 °C,30 nM,> 10000 nM,"Cn1ccnc1Sc1ccc(Nc2c(C#N)cnc3cc(-c4cnc(N5CCOCC5)nc4)ccc23)cc1Cl [Example 191, 4-{3-Chloro-4-[(1-methyl-1H-imidazol-2-yl)sulfanyl]anilino}-7-[2-(4-morpholinyl)-5-pyrimidinyl]-3-quinolinecarbonitrile]"
> 1000 nM,5.3 nM,6 nM,–,–,–,"Cn1ccnc1Sc1ccc(Nc2c(C#N)cnc3cc(-c4ccc(N5CCCCC5)nc4)ccc23)cc1Cl [Example 211, 4-({3-Chloro-4-[(1-methyl-iH-imidazol-2-yl)sulfanyl]phenyl}amino)-7-[6-(1-piperidinyl)-3-pyridinyl]-3-quinolinecarbonitrile]"

# The remaining lines, values behind:
Compound,IC50 [1],IC50 [2],IC50 (Raf1 (c-Raf)),melting point,"IC50 ([2]; Homo sapiens, LoVo, 96 h)","IC50 ([1]; Homo sapiens, Caco-2, 96 h)"
4-({3-Chloro-4-[(1-methyl-1H-imidazol-2-yl) sulfanyl]phenyl }amino)-7-[5-(1-pyridinyl]-3-quinolinecarbonitrile [Example 180],930 nM,5.6 nM,3.7 nM,–,–,–
4-{3-Chloro-4-[(1-methyl-1H-imidazol-2-yl) sulfanyl]anilino }-7-{5-[(4-ethyl-1-piperazinyl) methyl]-2-furyl }-3-quinolinecarbonitrile [Example 156],1000 nM,5.6 nM,9 nM and 12 nM,–,–,–
"Cn1ccnc1Sc1ccc(Nc2c(C#N)cnc3cc(-c4csc(CN5CCOCC5)c4)ccc23)cc1Cl [Example 33, 4-{3-chloro-4-[(1-methyl-1H-imidazol-2-yl)sulfanyl]anilino}-7-[5-(4-morpholinylmethyl)-3-thienyl]-3-quinolinecarbonitrile]",–,–,6 nM,110 to 113 °C,6 nM,–
"Cn1ccnc1Sc1ccc(Nc2c(C#N)cnc3cc(-c4ccc(CN5CCNCC5)cc4)ccc23)cc1Cl [Example 97, 4-({3-chloro-4-[(1-methylimidazol-2-yl)sulfanyl]phenyl}amino)-7-[4-(1-piperazinylmethyl)phenyl]-3-quinolinecarbonitrile]",–,–,16 nM,140 to 142 °C,33 nM,> 1000 nM
"N#Cc1cnc2cc(-c3csc(CN4CCCCC4)c3)ccc2c1Nc1ccc(Sc2ccccc2)c(Cl)c1 [Example 462, 4-{[3-chloro-4-(phenylsulfanyl)phenyl]amino}-7-[5-(1-piperidinylmethyl)-3-thienyl]-3-quinolinecarbonitrile]",–,–,50 nM,–,–,–
